According to patent US20060147388A1, “Pharmaceutical compositions for nasal delivery” (priority 2003, published 2006):
Where “and” joins values, the source holds several entries; their conditions need not be identical. Equal entries are not always repeated.

System: ‘off’ period in subjects with PD
Assay: Single-dose reversal of 'off' period in subjects with PD, subcutaneous vs intra-nasal apomorphine
Assay type: in vivo, human
Conditions: for Duration of ‘on’ response / Latency for ‘on’ response: s/c (subcutaneous), normal dose 2-5 mg, individual PD subjects 1-6
Source text: The nasal powder formulation used in this study was in accordance with this invention prepared using the method of Method example 1 and comprised the following components:
Six subjects with PD complicated by motor fluctuations were studied, 5 male (mean age 64 years, range 57-70 years), […]. The mean duration of disease was 13 years (range 7-24 years). […] On each dosing day the subjects attended the clinic and their normal oral medication was withheld until an ‘off’ episode developed. Each subject then received the designated apomorphine dose (subcutaneous or nasal). The abbreviated Unified PD Rating Scale (UPDRS) was used to assess motor performance at regular intervals following each apomorphine dosing. The time for the ‘off’ period to be fully alleviated and the duration of this response were determined primarily by patient feedback and supported by clinical judgement and the UPDRS scores.

[1] = subcutaneous dosing 2-5 mg, mean of 6 subjects

For `CN1CCc2cccc3c2[C@H]1Cc1ccc(O)c(O)c1-3` [subcutaneous apomorphine, Apomorphine], which “Duration of ‘on’ response” value (subcutaneous dose 2 mg) is on record?
Its value is 75 min and 96 min.

And the “Latency for ‘on’ response” value (subcutaneous dose 2 mg)?
The value was 20 min.

What about the “Duration of ‘on’ response” value (subcutaneous dose 4 mg) of the same compound?
The value was 65 min and 48 min and 43 min.

And the “Latency for ‘on’ response” value (subcutaneous dose 4 mg)?
The value was 14 min (2×) and 30 min.

What about the “Duration of ‘on’ response” value (subcutaneous dose 5 mg) of the same compound?
The value was 46 min.

What about the “Latency for ‘on’ response” value (subcutaneous dose 5 mg) of the same compound?
The value was 61 min.

What about the “Mean duration of ‘on’ response” value [1] of the same compound?
Its value is 62 min.

What about the “Mean latency of ‘on’ response” value [1] of the same compound?
The value was 27 min.

And the “Range of latency of response” value (subcutaneous dosing 2-5 mg, range over 6 subjects)?
Its value is 14 to 61 min.

And the “Range of duration of response” value (subcutaneous dosing, range over 6 subjects)?
Its value is 43 to 96 min.
